Experimental data published in patent US20240409528A1, “BINDERS OF CEREBLON AND METHODS OF USE THEREOF” (DANA-FARBER CANCER INSTITUTE, INC., priority 2021, published 2024).
Converted amounts (≈) assume the structure as drawn. Like-named read-outs stand apart in the source and are kept apart here.

Columns and labels:
NanoLuc-CRBN = target: T1, NanoLuc-CRBN (Homo sapiens, UniProt Q96SW2); assay: Cellular CRBN NanoBret Engagement Assay; assay type: cell-based
T1 construct: expressed in transfected cells; host or cells: HEK293T, lentiviral transduction, puromycin selection
Protocol: HEK293T cells were transduced with lentivirus and put under puromycin selection (5 μg/mL) for two weeks to produce a cell line stably expressing CRBN with N-terminally fused NanoLuc® luciferase (NanoLuc-CRBN). After antibiotic selection, cells were cultured in DMEM (Gibco, Life Technologies) supplemented with 10% FBS and 1 μg/mL puromycin to maintain stable NanoLuc®-CRBN expression. […] After 3-4 min, the trypsin was quenched with 5× volume DMEM media (Gibco, Life Technologies) with 10% FBS and cells were collected by centrifugation (1000 rpm, 5 min). The supernatant was removed by vacuum aspiration and the pellet was then resuspended in Opti-MEM™ without phenol red. The density of this cell suspension was determined by diluting the cells 1:1 with trypan blue, then counting using a Countess II (Thermo Fischer Scientific) and then diluted to the required volume at 2×10^5 viable cells/mL in Opti-MEM™ I (Gibco, Life Technologies). […] After plating, the assay plate was centrifuged (500×g, 5 min) and covered in aluminum foil. Compounds for testing were added to the plate using a D300e Digital Dispenser (HP) in duplicate 12-pt titrations from a 10 mM stock in DMSO, with DMSO normalized to 1% total volume. The plate was then placed in an incubator at 37° C., 5% CO2 for two hours. […] This was then added to each well (25 μL/well). The plate was read on a Pherastar FSX microplate reader with simultaneous dual emission capabilities to read 384-well plates at 450 and 520 nm. The NanoBRET™ ratio was calculated by dividing the signal at 520 nm by the signal at 450 nm for each sample. […] The NanoLuc® substrate and extracellular inhibitor were purchased as a kit from Promega Corporation and used as is from the box—Promega NanoBRET™ Nano-Glo® Substrate/Inhibitor; Promega Catalog number N2161 for 10,000 assay kit.

IKZF1 = assay: Inhibition of IKZF1 degradation by lenalidomide, Western blot in MOLT4 cells; conditions: 1 μM compound 2 hr pre-treatment, then 1 μM lenalidomide 5 hours
hsCRBN-DDB1 complex [1] = target: T2, hsCRBN-DDB1 complex (Homo sapiens, UniProt Q96SW2); assay: Intact LC-MS of CRBN-DDB1 complex (covalent labeling); assay type: binding; conditions: for adduct formation with CRBN (intact MS): equimolar compound, room temperature
Protocol: After injecting 5 μg, proteins were desalted for four min on column with 100% A and then eluted with an HPLC gradient (0-100% B in 1 min; A=0.2 M acetic acid in water; B=0.2 M acetic acid in acetonitrile). The mass spectrometer was programmed to acquire full scan mass spectra (m/z 300-2000) in profile mode (spray voltage=4.5 kV). Mass spectra were deconvoluted using MagTran software version 1.03b2.

in vitro = conditions: human, plasma
RNF166 = target: T3, RNF166 (Homo sapiens, UniProt Q96A37); assay: Mass spectrometry proteomics, relative protein abundance in MOLT4 cells (RNF166); assay type: cell-based; conditions: 1 μM compound, 5 hours
T3 construct: endogenous in cells; host or cells: MOLT4
T3 sequence (Q96A37 1-237): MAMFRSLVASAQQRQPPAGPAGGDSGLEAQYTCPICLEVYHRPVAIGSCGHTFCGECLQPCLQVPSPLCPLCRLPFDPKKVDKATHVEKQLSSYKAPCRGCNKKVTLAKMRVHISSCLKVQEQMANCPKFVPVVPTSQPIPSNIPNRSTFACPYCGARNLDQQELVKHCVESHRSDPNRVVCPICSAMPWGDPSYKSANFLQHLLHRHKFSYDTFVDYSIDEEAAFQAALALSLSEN

PFKFB4 = target: T4, PFKFB4 (Homo sapiens, UniProt Q16877); assay: Mass spectrometry proteomics, relative protein abundance in MOLT4 cells (PFKFB4); assay type: cell-based; conditions: 1 μM compound, 5 hours
T4 construct: endogenous in cells; host or cells: MOLT4

hsCRBN-DDB1 complex [2] = target: T2, hsCRBN-DDB1 complex; assay: Peptide mapping CE-MS/MS, site of covalent modification; assay type: binding; conditions: trypsin digest
Text: Peptides were resolved at 500 V/cm using an HR chip with a background electrolyte consisting of 50% acetonitrile with 1% formic acid. The mass spectrometer was operated in data dependent mode and the five most abundant ions in each MS scan (m/z 300-2000, 60K resolution, 3E6 target, 100 ms max fill time) were subjected to MS/MS (15K resolution, 1E5 target, 100 ms max fill time). […] Search parameters specified fixed vinylpyridine modification of cysteine, variable methionine oxidation, and variable modification of cysteine. Modified spectra were examined and figures prepared using mzStudio software.

GSPT1 = target: T5, GSPT1 (Homo sapiens, UniProt P15170); assay: Mass spectrometry proteomics, relative protein abundance in MOLT4 cells (GSPT1); assay type: cell-based; conditions: 1 μM compound, 5 hours
T5 construct: endogenous in cells; host or cells: MOLT4

Caco-2 permeability = assay type: in vitro ADME; conditions: human
[3] = Human hepatocyte (Hhep) stability; assay type: in vitro ADME; conditions: human hepatocytes
Protocol: (§1) The stability of compounds was assessed in human plasma, human liver microsomes (HLM) and human hepatocytes (Hhep) using procedures previously published (Kong el al., ACS Med Chem Lett 12:1861-1865 (2021)). […] HLM stability T1/2 compound 1: >145 min. Hhep stability Tin compound 1: >217 min.

Kinetic solubility = assay type: physicochemical; conditions: kinetic from dmso stock
[4] = Human liver microsome (HLM) stability; assay type: in vitro ADME; conditions: human liver microsomes
Protocol: as §1

[5] = HEK293T cells stably expressing NanoLuc-CRBN, 250 nM BODIPY-lenalidomide tracer, 2 h incubation, read-out: CRBN NanoBRET IC50

Compound: Nc1cc(OS(=O)(=O)F)cc2c1CN(C1CCC(=O)NC1=O)C2=O (stereo not drawn) [Compound 10, 4-amino-2-(2,6-dioxo-3-piperidyl)-6-fluorosulfonyloxy-1-oxo-isoindoline]
- IC50 (NanoLuc-CRBN): 0.89 µM

Compound: O=C1CCC(N2Cc3ccc(S(=O)(=O)F)cc3C2=O)C(=O)N1 (stereo not drawn) [Compound 3, 2-(2,6-dioxopiperidin-3-yl)-3-oxoisoindoline-5-sulfonyl fluoride]
- inhibition of IKZF1 degradation by lenalidomide (IKZF1): clearly inhibits the degradation of IKZF1 by lenalidomide
- mass shift of CRBN (Δmass) (hsCRBN-DDB1 complex [1]; 1 eq. compound, 4 hr): 307
- adduct formation with CRBN (intact MS) (hsCRBN-DDB1 complex [1]): form an adduct with CRBN

Compound: C=CS(=O)(=O)c1ccc2c(c1)C(=O)N(C1CCC(=O)NC1=O)C2 (stereo not drawn) [Compound 5, 3-(1-oxo-6-(vinylsulfonyl)isoindolin-2-yl)piperidine-2,6-dione]
- IC50 (NanoLuc-CRBN; [5]): 12.6 µM

Compound: Cc1cn(S(=O)(=O)c2ccc3c(c2)C(=O)N(C2CCC(=O)NC2=O)C3)c(=O)[nH]c1=O (stereo not drawn) [Compound 19, 1-((2-(2,6-dioxopiperidin-3-yl)-3-oxoisoindolin-5-yl)sulfonyl)-5-methylpyrimidine-2,4(1H,3H)-dione]
- Human plasma stability T1/2: 239 min

Compound: C=CS(=O)(=O)Nc1ccc2c(c1)C(=O)N(C1CCC(=O)NC1=O)C2 (stereo not drawn) [Compound 6, N-(2-(2,6-dioxopiperidin-3-yl)-3-oxoisoindolin-5-yl)ethenesulfonamide]
- IC50 (NanoLuc-CRBN; [5]): 0.54 µM

Compound: O=C1CCC(N2Cc3cc(OS(=O)(=O)F)ccc3C2=O)C(=O)N1 (stereo not drawn) [Compound 2, 2-(2,6-dioxopiperidin-3-yl)-1-oxoisoindolin-5-yl sulfurofluoridate]
- adduct formation with CRBN (intact MS) (hsCRBN-DDB1 complex [1]): form an adduct with CRBN

Compound: Nc1cn(S(=O)(=O)c2ccc3c(c2)C(=O)N(C2CCC(=O)NC2=O)C3)c(=O)[nH]c1=O (stereo not drawn) [Compound 20, 5-amino-1-((2-(2,6-dioxopiperidin-3-yl)-3-oxoisoindolin-5-yl)sulfonyl)pyrimidine-2,4(1H,3H)-dione]
- half-life (in vitro): > 289 min
- IC50 (NanoLuc-CRBN; [5]): 8.63 µM

Compound: O=C1CCC(N2Cc3ccc(S(=O)(=O)n4ccc(F)n4)cc3C2=O)C(=O)N1 (stereo not drawn) [Compound 15, 3-(6-((3-fluoro-1H-pyrazol-1-yl)sulfonyl)-1-oxoisoindolin-2-yl)piperidine-2,6-dione]
- Human plasma stability T1/2: 115 min

Compound: O=C1CCC(N2Cc3ccc(S(=O)(=O)n4cnc(F)c4)cc3C2=O)C(=O)N1 (stereo not drawn) [Compound 17, 3-(6-((4-fluoro-1H-imidazol-1-yl)sulfonyl)-1-oxoisoindolin-2-yl)piperidine-2,6-dione]
- Human plasma stability T1/2: 19 min

Compound: O=C1CCC(N2Cc3ccc(S(=O)(=O)n4cc(C(F)(F)F)cn4)cc3C2=O)C(=O)N1 (stereo not drawn) [Compound 13, 3-(1-oxo-6-((4-(trifluoromethyl)-1H-pyrazol-1-yl)sulfonyl)isoindolin-2-yl)piperidine-2,6-dione]
- Human plasma stability T1/2: 10 min

Compound: O=C1CCC(N2Cc3ccc(S(=O)(=O)n4cnc(C(F)(F)F)c4)cc3C2=O)C(=O)N1 (stereo not drawn) [Compound 14, 3-(1-oxo-6-((4-(trifluoromethyl)-1H-imidazol-1-yl)sulfonyl)isoindolin-2-yl)piperidine-2,6-dione]
- Human plasma stability T1/2: 6.5 min

Compound: O=C1CCC(N2Cc3cc(S(=O)(=O)F)ccc3C2=O)C(=O)N1 (stereo not drawn) [Compound 4, 2-(2,6-dioxopiperidin-3-yl)-1-oxoisoindoline-5-sulfonyl fluoride]
- relative fold-change abundance of RNF166 (RNF166): clearly downregulated
- adduct formation with CRBN (intact MS) (hsCRBN-DDB1 complex [1]): form an adduct with CRBN
- relative fold-change abundance of PFKFB4 (PFKFB4): clearly downregulated
- site of covalent labeling of CRBN (hsCRBN-DDB1 complex [2]): label His353
- relative fold-change abundance of GSPT1 (GSPT1): clearly downregulated

Compound: O=C1CCC(N2Cc3ccc(S(=O)(=O)n4cc(F)cn4)cc3C2=O)C(=O)N1 (stereo not drawn) [Compound 12, 3-(6-((4-fluoro-1H-pyrazol-1-yl)sulfonyl)-1-oxoisoindolin-2-yl)piperidine-2,6-dione]
- Human plasma stability T1/2: 92 min

Compound: O=C1CCC(N2Cc3ccc(S(=O)(=O)n4ccc(=O)[nH]c4=O)cc3C2=O)C(=O)N1 (stereo not drawn) [Compound 21, 1-((2-(2,6-dioxopiperidin-3-yl)-3-oxoisoindolin-5-yl)sulfonyl)pyrimidine-2,4(1H,3H)-dione]
- Human plasma stability T1/2: 163 min

Compound: Cc1cnn(S(=O)(=O)c2ccc3c(c2)C(=O)N(C2CCC(=O)NC2=O)C3)c1 (stereo not drawn) [Compound 11, 3-(6-((4-methyl-1H-pyrazol-1-yl)sulfonyl)-1-oxoisoindolin-2-yl)piperidine-2,6-dione]
- Human plasma stability T1/2: > 289 min

Compound: O=C1CCC(N2Cc3ccc(S(=O)(=O)n4ccc(C(F)(F)F)n4)cc3C2=O)C(=O)N1 (stereo not drawn) [Compound 18, 3-(1-oxo-6-((3-(trifluoromethyl)-1H-pyrazol-1-yl)sulfonyl)isoindolin-2-yl)piperidine-2,6-dione]
- Human plasma stability T1/2: 14 min

Compound: O=C1CCC(N2Cc3ccc(OS(=O)(=O)F)cc3C2=O)C(=O)N1 (stereo not drawn) [Compound 1, 2-(2,6-dioxopiperidin-3-yl)-3-oxoisoindolin-5-yl sulfurofluoridate]
- Papp (Caco-2 permeability): 29.5 ×10⁻⁶ cm/s
- Hhep stability Tin [3]: > 217 min
- solubility kinetic (Kinetic solubility): 119 µM (≈ 40.7 µg/mL)
- HLM stability T1/2 [4]: > 145 min
